The text below walks through data of patent US20200253926A1, “THERAPEUTIC COMBINATIONS” (SUPERSALUS, INC., priority 2019, published 2020).

Counter-ions that a name gives are not always drawn.

The subject of one series is aortic rings. The conditions noted are these: cited from earlier work.
A further series has as its system NO2 levels. Conditions: compared with vehicle treated animals; cited from earlier work.
For a further series, the system named is H2S levels. The conditions noted are these: compared to vehicle treated animals; cited from earlier work.
A further series is described as follows: physchem. The format is physicochemical. The conditions noted are these: for solubility: thermodynamic from solid.
Series [1] is described as follows: Hygroscopicity by dynamic vapor sorption (DVS). The format is physicochemical. How it is done: Zofenopril calcium was slurried in ACN. Two molar equivalents of HCl were added. The materials were allowed to slurry overnight. […] On DSC this material has an onset at 162° C. This is in contrast to DSC results for zofenopril calcium which has an onset of 250.3° C. […] On the sorption step up to 65% RH, the material gained 1.2% weight. Above this RH, the material gained an additional 36.9% weight. […] Most of the weight was lost on desorption with significant hysteresis.
Nicorandil free base was dissolved in acetone resulting in a clear solution. A molar equivalent of HCl was added stepwise following which there nucleation with rosettes of aciculars and blades that were birefringent. The resulting material was recovered and shown to be nicorandil HCl form A. The XRPD pattern for this sample is shown in FIG. 16. Based on the single crystal structure, nicorandil hydrochloride form A is anhydrous and contains one nicorandil cation and one chloride anion in the asymmetric unit. On the sorption step up to 75% RH, the material gained 0.5% weight. Above that it gained an additional 52% weight. Most of the weight was lost on desoption with significant hysteresis. The material recovered from DVS was shown by XRPD to be form A (FIG. 18). Solubility of nicorandil HCl form A was tested and shown to be >48 mg/mL which was the limit of the test.

The subject of series [2] is human umbilical artery segments. Conditions: cited from earlier work.
For series [3] the following is noted: following a 5 mg dose; expected value; cited from earlier work.
In another series the test system is portal vein rings. In words: In-vitro rat portal vein ring relaxation (isometric method). The format is cell-based, Wistar rats. Set-up: Emax: dose or concentration left out as unconfirmed. As for the experimental part: The portal vein was recovered from Wistar rats weighing approximately 450 gm, and divided into vein segments. Segments were placed in a bath containing approximately 10 mL of Krebs buffer at pH˜7.4. The vehicle used for treatment was 0.2% DMSO. Portal vein rings were pre-contracted and incubated for 60 min at 32° C. Ring relaxation was measured after 10 minutes of exposure to the test compound(s). Chromakalim served as the positive control for the experiment. Ring relaxation was measured by the isometric method as gram changes. Relaxation of the vein rings in this assay are a function of both KATP channel agonization and NO response. In prior published work, about half of the relaxation response could be attributable to KATP channel agonization and half to a NO-mediated response. Each assay was run in duplicate.
Eight combinations of concentration of zofenopril and nicorandil were tested in the assay. These were 80 and 40 μM nicorandil, 100 and 50 μM zofenopril, 12.5 μM zofenopril+10 μM nicorandil, 12.5 μM zofenopril+20 μM nicorandil, 12.5 μM zofenopril+40 μM nicorandil, and 25 μM zofenopril+40 μM nicorandil.

For another series, the system named is isolated rat hearts. The conditions noted are these: cited from earlier work.
The next series has as its system arterial rings. Conditions: 100 μM zofenopril; cited from earlier work.

By solubility is commonly meant the dissolved amount per volume that the medium holds. As a reminder, the Cmax is the maximum level reached in the sampled fluid or tissue.

Experimental for physchem: The hygroscopicity of zofenopril sodium material A was tested using DVS.

On to `CC1(C)Oc2ccc(C#N)cc2C(N2CCCC2=O)C1O` (stereo not drawn) [Chromakalim, chromakalim], for which the “relaxation of aortic rings” value with aortic rings is listed as “near maximal relaxation”.
As for `CCOC(=O)[C@H](CCc1ccccc1)N[C@@H](C)C(=O)N1[C@H](C(=O)O)C[C@@H]2CCC[C@@H]21` [Ramipril, ramipril], the “plasma and myocardial tissue NO2 levels” value in the series on NO2 levels is recorded as “virtually no effect”. Besides, the “plasma and myocardial tissue H2S levels” value with H2S levels was “did not elevate”.
In the case of `O=C(NCCO[N+](=O)[O-])c1cccnc1` [nicorandil HCl form A, nicorandil hydrochloride], the solubility in the series “physchem” was greater than 48 mg/mL. In addition, the “DVS additional weight gain above 75% RH” value in series [1] (above 75% RH) was determined as 52 % weight. Also, the “DVS weight gain on the sorption step up to 75% RH” value in [1] (up to 75% RH) is 0.5 % weight.
For `O=C(NCCO[N+](=O)[O-])c1cccnc1` [nicorandil], the “relaxation, % of maximum” value in [2] (30 μM nicorandil) is recorded as “about 60%”. Besides, in [2] (100 μM nicorandil), the relaxation result is given as “maximal relaxation”. The Cmax in series [3] was 15 to 16 µM. Moreover, the relaxation response result in the series on portal vein rings (40 μM nicorandil) was “maximal relaxation response”.
For the compound `C[C@H](CSC(=O)c1ccccc1)C(=O)N1C[C@@H](Sc2ccccc2)C[C@H]1C(=O)O` [zofenopril sodium material A, zofenopril sodium], the “pH of the solution at the end of the solubility” value in the series “physchem” (pH 10) turned out to be 10. The solubility in the series “physchem” (pH 10, water) is greater than 48 mg/mL.
For the compound `C[C@H](CSC(=O)c1ccccc1)C(=O)N1C[C@@H](Sc2ccccc2)C[C@H]1C(=O)O` [zofenopril], the “pre-ischemic coronary flow or contractile function” value in the series on isolated rat hearts is “little effect”. Besides, in the series on isolated rat hearts (reversed by glyburide and 5-HD), the “reperfusion end diastolic pressure (EDP) and lactate dehydrogenase (LDH) release” value is reported as “significantly reduced”; the reperfusion function result is given as “significantly improved”. In the series on NO2 levels, the “plasma and myocardial tissue NO2 levels” value is reported as “significantly increased”. Further, the relaxation response entry in the series on arterial rings is recorded as “maximal relaxation response”. For the same compound, the “maximal response, relaxation of aortic rings” value in the series on aortic rings is given as 89%. In the series with H2S levels, the “plasma and myocardial tissue H2S levels” value is “directly elevating plasma and myocardial tissue H2S levels”. Also, the “relaxation, % of the positive control” value in the series on portal vein rings (50 μM zofenopril) amounted to 60%. For the same compound, in the series with portal vein rings (100 μM zofenopril, positive control chromakalim, 10 min exposure), the “relaxation, % of the positive control” value was “about 85%”. In the series on portal vein rings (Rattus norvegicus, read-out: relaxation, % of the maximum response for zofenopril), the Emax is roughly 70%.
On to “zofenopril calcium chloride [Zofenopril calcium chloride form A]”, for which the “DVS additional weight gain above 65% RH” value in [1] (above 65% RH, equilibration timed out at all steps) is reported as 36.9 % weight. Further, the “DVS weight gain on the sorption step up to 65% RH” value in series [1] (up to 65% RH) is recorded as 1.2 % weight.
